This is an account of results in patent US20080069898A1, “Topical Compositions Comprising Myrica Gale Oil” (priority 2004, published 2008).

The subject of this data set is skin. Put plainly: 96 hour patch test of irritancy. As to conditions: 0.3% w/v in sterile water. The method, then:
A 96 hour patch test was carried out to assess the irritancy or otherwise of Myrica gale oil when applied to the skin. For comparison, a solution of sodium dodecyl sulphate and white soft paraffin were also investigated.

As to `CCCCCCCCCCCCOS(=O)(=O)[O-].[Na+]` [Sodium dodecyl sulphate (SDS), Sodium dodecyl sulphate], the “Mean Dryness (D)” value was 0.72, the “Mean Erythema (E)” value is recorded as 4.54 and the “Mean Irritation (E + D)” value is given as 5.26.
